Test results as given in patent US6462069B2, “Compounds, pharmaceutical compositions, and methods for inhibiting protein kinases” (Agouron Pharmaceuticals, Inc., priority 2000, dated 2002).

How the values were obtained:
Format in all cases: biochemical
[1] = biological target: T1, VEGF-R2 (VEGF-R2Δ50 construct) (Homo sapiens, UniProt P35968, DEL940-989/E990V); assay: VEGF-R2 assay; settings: read-out: Percent Inhibition VEGF
T1 construct: VEGF-R2Δ50 contains residues 806-939 and 990-1171; made in house; host or cells: baculovirus/insect cell system
T1 sequence (P35968 with tags, fused parts or gaps DEL940-989/E990V limits assumed): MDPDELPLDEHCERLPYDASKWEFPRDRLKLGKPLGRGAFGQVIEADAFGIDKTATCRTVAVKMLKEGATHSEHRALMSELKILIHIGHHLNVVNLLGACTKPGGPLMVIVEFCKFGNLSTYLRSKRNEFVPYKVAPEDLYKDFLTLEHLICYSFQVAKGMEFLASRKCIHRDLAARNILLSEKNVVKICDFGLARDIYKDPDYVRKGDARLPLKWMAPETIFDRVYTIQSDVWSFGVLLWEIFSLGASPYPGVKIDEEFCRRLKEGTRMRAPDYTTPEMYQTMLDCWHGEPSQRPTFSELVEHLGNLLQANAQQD
Description: This construct determines the ability of a test compound to inhibit tyrosine kinase activity. A construct (VEGF-R2Δ50) of the cytosolic domain of human vascular endothelial growth factor receptor 2 (VEGF-R2) lacking the 50 central residues of the 68 residues of the kinase insert domain was expressed in a baculovirus/insect cell system. This construct is described by McTigue et al. in Structure, vol. 7, pp. 319-330 (1999) and co-pending U.S. patent application Ser. No. 09/390,326, filed Sep. 7, 1999. Of the 1356 residues of full-length VEGF-R2, VEGF-R2Δ50 contains residues 806-939 and 990-1171, and also one point mutation (E990V) within the kinase insert domain relative to wild-type VEGF-R2. […]
The production of ADP from ATP that accompanies phosphoryl transfer was coupled to oxidation of NADH using phosphoenolpyruvate (PEP) and a system having pyruvate kinase (PK) and lactic dehydrogenase (LDH). The oxidation of NADH was monitored by following the decrease of absorbance at 340 nm (e340=6.22 cm^−1 mM^−1) using a Beckman DU 650 spectrophotometer. […] Ki values were determined by measuring enzyme activity in the presence of varying concentrations of test compounds. The data were analyzed using Enzyme Kinetic and Kaleidagraph software.
Formation of phosphogastrin was monitored using biotinylated gastrin peptide (1-17) as substrate. […]

CDK4/cyclin D3 complex = biological target: T2, CDK4/cyclin D3 complex (Homo sapiens, UniProt P11802); assay: Inhibition of CDK4/Cyclin D retinoblastoma kinase activity; settings: apparent Ki
T2 construct: made in house; host or cells: insect cells co-infected with baculovirus expression vectors
T2 sequence (P11802 whole entry): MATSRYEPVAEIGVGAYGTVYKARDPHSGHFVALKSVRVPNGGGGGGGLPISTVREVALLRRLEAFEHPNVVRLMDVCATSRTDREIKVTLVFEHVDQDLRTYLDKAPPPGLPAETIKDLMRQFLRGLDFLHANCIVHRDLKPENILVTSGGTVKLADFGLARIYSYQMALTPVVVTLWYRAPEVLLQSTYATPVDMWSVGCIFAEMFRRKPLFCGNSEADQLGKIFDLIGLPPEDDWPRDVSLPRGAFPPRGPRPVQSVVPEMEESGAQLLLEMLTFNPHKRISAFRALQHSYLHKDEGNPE
T2 sequence (P30281 whole entry partner): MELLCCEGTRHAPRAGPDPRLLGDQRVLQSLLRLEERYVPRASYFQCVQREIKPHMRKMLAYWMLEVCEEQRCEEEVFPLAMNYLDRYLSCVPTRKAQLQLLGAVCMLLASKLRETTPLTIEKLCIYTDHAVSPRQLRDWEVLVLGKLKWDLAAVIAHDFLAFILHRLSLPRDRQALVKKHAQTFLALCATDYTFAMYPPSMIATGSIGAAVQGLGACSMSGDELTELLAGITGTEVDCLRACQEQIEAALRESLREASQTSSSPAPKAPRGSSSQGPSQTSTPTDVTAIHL
Protocol: (§1) Cyclin-dependent kinase activity was measured by quantifying the enzyme-catalyzed, time-dependent incorporation of radioactive phosphate from [^32P]ATP or [^33P]ATP into a protein substrate. Unless noted otherwise, assays were performed in 96-well plates in a total volume of 50 μL, in the presence of 10 mM HEPES (N-[2-hydroxyethyl]piperazine-N′-[2-ethanesulfonic acid]) (pH 7.4). 10 mM MgCI2, 25 μM adenosine triphosphate (ATP), 1 mg/mL ovalbumin, 5 μg/mL leupeptin, 1 mM dithiothreitol, 10 mM beta-glycerophosphate, 0.1 mM sodium vanadate, 1 mM sodium fluoride, 2.5 mM ethylene glycol-bis(β-aminoethyl ethKer)-N,N,N′N′-tetraacetic acid (EGTA), 2% (v/v) dimethylsulfoxide, and 0.03-0.4 μCi [^32/33P]ATP per reaction. Reactions were initiated with enzyme, incubated at 30° C. and terminated after 20 minutes by the addition ofethylenediaminetetraacetic acid (EDTA) to 250 mM. The phosphorylated substrate was then captured on a nitrocellulose or phosphocellulose membrane using a 96-well filtration manifold, and unincorporated radioactivity was removed by repeated washing with 0.85% phosphoric acid. Radioactivity was quantified by exposing the dried membranes to a phosphorimager.
(§2) Apparent Ki values were measured by assaying enzyme activity in the presence of different inhibitor compound concentrations and subtracting the background radioactivity measured in the absence of enzyme. Inhibition data were fit to an equation for competitive inhibition using Kaleidagraph (Synergy Software), or were fit to an equation for competitive tight-binding inhibition using the software KineTic (BioKin, Ltd.).
A complex of human CDK4 and cyclin D3, or a complex of human CDK4 and genetically truncated (1-264) cyclin D3, was purified using traditional biochemical chromatographic techniques from insect cells that had been co-infected with the corresponding baculovirus expression vectors ((see e.g., Meijer and Kim, “Chemical Inhibitors of Cyclin-Dependent Kinases,” Methods in Enzymol,. vol. 283, pp. 113-128 (1997)). The enzyme complex (5 or 50 nM) was assayed with 0.3-0.5 μg of purified recombinant retinoblastoma protein fragment (Rb) as a substrate. The engineered Rb fragment (residues 386-928 of the native retinoblastoma protein; 62.3 kDa) contains the majority of the phosphorylation sites found in the native 106-kDa protein, as well as a tag of six histidine residues for ease of purification. Phosphorylated Rb substrate was captured by microfiltration on a nitrocellulose membrane and quantified using a phosphorimager as described above. For measurement of tight-binding inhibitors, the enzyme complex concentration was lowered to 5 nM, and the assay duration was extended to 60 minutes, during which the time-dependence of product formation was linear.

CDK2/cyclin A complex = biological target: T3, CDK2/cyclin A complex (Homo sapiens, UniProt P24941); assay: Inhibition of CDK2/Cyclin A retinoblastoma kinase activity; settings: apparent Ki
T3 construct: made in house; host or cells: CDK2: insect cells (baculovirus); cyclin A: E. coli
Protocol: as §1, §2
CDK2 was purified using published methodology (Rosenblatt et al., “Purification and Crystallization of Human Cyclin-dependent Kinase 2,” J. Mol. Biol., vol. 230, pp. 1317-1319 (1993)) from insect cells that had been infected with a baculovirus expression vector. […] Ki values were measured as described above.

Question: For `c1ccc(Nc2cc(-c3csc4ccccc34)[nH]n2)cc1` [Compound B], which inhibition at 5 µM [1] is on record?
Answer: 21%

Question: And the Ki (CDK4/cyclin D3 complex)?
Answer: 3.1 µM

Question: What about the Ki (CDK2/cyclin A complex) of the same compound?
Answer: 6.2 µM

Question: With `c1ccc(Nc2cc(-c3cccs3)[nH]n2)cc1` [Compound A, Phenyl-(5-thiophen-2-yl-1H-pyrazol-3-yl)-amine] as the compound, how does the inhibition at 5 µM [1] read?
Answer: 10%

Question: And the Ki (CDK4/cyclin D3 complex)?
Answer: 26.2 µM

Question: And the Ki (CDK2/cyclin A complex)?
Answer: 25.8 µM
